Experimental data as given in PubChem BioAssay AID1259407 (Chemical Carcinogenesis Research Information System (CCRIS), 2018).
Activity calls are given as the source filed them. The rule behind the calls is not given here.

Tested on: CCRIS mutagenicity, Ames/micronucleus/aberration tests
Assay: CCRIS mutagenicity studies
[1] = Test System: AMES SALMONELLA TYPHIMURIUM, Strain/Indicator: TA97, Metabolic Activation: HAMSTER, LIVER, S-9, AROCLOR 1254 (10%), Method: PREINCUBATION
[2] = Test System: AMES SALMONELLA TYPHIMURIUM, Strain/Indicator: TA97, Metabolic Activation: NONE, Method: PREINCUBATION
[3] = Test System: AMES SALMONELLA TYPHIMURIUM, Strain/Indicator: TA97, Metabolic Activation: RAT, LIVER, S-9, AROCLOR 1254 (10%), Method: PREINCUBATION
[4] = Test System: AMES SALMONELLA TYPHIMURIUM, Strain/Indicator: TA98, Metabolic Activation: NONE, Method: PREINCUBATION
[5] = Test System: AMES SALMONELLA TYPHIMURIUM, Strain/Indicator: TA98, Metabolic Activation: RAT, LIVER, S-9, AROCLOR 1254 (10%), Method: PREINCUBATION
[6] = Test System: AMES SALMONELLA TYPHIMURIUM, Strain/Indicator: TA100, Metabolic Activation: NONE, Method: PREINCUBATION
[7] = Test System: AMES SALMONELLA TYPHIMURIUM, Strain/Indicator: TA100, Metabolic Activation: RAT, LIVER, S-9, AROCLOR 1254 (10%), Method: PREINCUBATION
[8] = Test System: AMES SALMONELLA TYPHIMURIUM, Strain/Indicator: TA1535, Metabolic Activation: HAMSTER, LIVER, S-9, AROCLOR 1254 (10%), Method: PREINCUBATION
[9] = Test System: AMES SALMONELLA TYPHIMURIUM, Strain/Indicator: TA1535, Metabolic Activation: NONE, Method: PREINCUBATION
[10] = Test System: AMES SALMONELLA TYPHIMURIUM, Strain/Indicator: TA1535, Metabolic Activation: RAT, LIVER, S-9, AROCLOR 1254 (10%), Method: PREINCUBATION
[11] = Test System: AMES SALMONELLA TYPHIMURIUM, Strain/Indicator: TA1537, Metabolic Activation: NONE, Method: PREINCUBATION
[12] = Test System: AMES SALMONELLA TYPHIMURIUM, Strain/Indicator: TA100, Metabolic Activation: NONE, Method: STANDARD PLATE

Compound: CCCCCCCCCCCC(=O)O
- mutagenic call [1]: inactive; negative
- mutagenic call (Test System: AMES SALMONELLA TYPHIMURIUM, Strain/Indicator: TA97, Metabolic Activation: HAMSTER, LIVER, S-9, AROCLOR 1254 (30%), Method: PREINCUBATION): inactive; negative
- mutagenic call [2]: inactive; negative
- mutagenic call [3]: inactive; negative
- mutagenic call (Test System: AMES SALMONELLA TYPHIMURIUM, Strain/Indicator: TA97, Metabolic Activation: RAT, LIVER, S-9, AROCLOR 1254 (30%), Method: PREINCUBATION): inactive; negative
- mutagenic call (Test System: AMES SALMONELLA TYPHIMURIUM, Strain/Indicator: TA98, Metabolic Activation: HAMSTER, LIVER, S-9, AROCLOR 1254 (10 OR 30%), Method: PREINCUBATION): inactive; negative
- mutagenic call [4]: inactive; negative
- mutagenic call [5]: inactive; negative
- mutagenic call (Test System: AMES SALMONELLA TYPHIMURIUM, Strain/Indicator: TA98, Metabolic Activation: RAT, LIVER, S-9, AROCLOR 1254 (30%), Method: PREINCUBATION): inactive; negative
- mutagenic call (Test System: AMES SALMONELLA TYPHIMURIUM, Strain/Indicator: TA100, Metabolic Activation: HAMSTER, LIVER, S-9, AROCLOR 1254 (10 OR 30%), Method: PREINCUBATION): inactive; negative
- mutagenic call [6]: inactive; negative
- mutagenic call [7]: inactive; negative
- mutagenic call (Test System: AMES SALMONELLA TYPHIMURIUM, Strain/Indicator: TA100, Metabolic Activation: RAT, LIVER, S-9, AROCLOR 1254 (30%), Method: PREINCUBATION): inactive; negative
- mutagenic call [8]: inactive; negative
- mutagenic call (Test System: AMES SALMONELLA TYPHIMURIUM, Strain/Indicator: TA1535, Metabolic Activation: HAMSTER, LIVER, S-9, AROCLOR 1254 (30%), Method: PREINCUBATION): inactive; negative
- mutagenic call [9]: inactive; negative
- mutagenic call [10]: inactive; negative
- mutagenic call (Test System: AMES SALMONELLA TYPHIMURIUM, Strain/Indicator: TA1535, Metabolic Activation: RAT, LIVER, S-9, AROCLOR 1254 (30%), Method: PREINCUBATION): inactive; negative
- mutagenic call (Test System: AMES SALMONELLA TYPHIMURIUM, Strain/Indicator: TA1537, Metabolic Activation: HAMSTER, LIVER, S-9, AROCLOR 1254 (10%), Method: PREINCUBATION): inactive; negative
- mutagenic call (Test System: AMES SALMONELLA TYPHIMURIUM, Strain/Indicator: TA1537, Metabolic Activation: HAMSTER, LIVER, S-9, AROCLOR 1254 (30%), Method: PREINCUBATION): inactive; negative
- mutagenic call [11]: inactive; negative
- mutagenic call (Test System: AMES SALMONELLA TYPHIMURIUM, Strain/Indicator: TA1537, Metabolic Activation: RAT, LIVER, S-9, AROCLOR 1254 (30%), Method: PREINCUBATION): inactive; negative

Compound: Cc1cc(N=Nc2c(O)ccc3ccccc23)c(S(=O)(=O)O)cc1Cl
- mutagenic call (End Point: IN VITRO CHROMOSOMAL ABERRATIONS, Test System: CHO CELLS, Metabolic Activation: NONE): inactive; negative
- mutagenic call (End Point: IN VITRO CHROMOSOMAL ABERRATIONS, Test System: CHO CELLS, Metabolic Activation: RAT, LIVER, S-9, AROCLOR 1254): inactive; negative
- mutagenic call [1]: inactive; negative
- mutagenic call [2]: inactive; negative
- mutagenic call [3]: inactive; negative
- mutagenic call (Test System: AMES SALMONELLA TYPHIMURIUM, Strain/Indicator: TA98, Metabolic Activation: HAMSTER, LIVER, S-9, AROCLOR 1254 (5, 10 OR 30%), Method: PREINCUBATION): inactive; negative
- mutagenic call [5]: inactive; negative
- mutagenic call (Test System: AMES SALMONELLA TYPHIMURIUM, Strain/Indicator: TA100, Metabolic Activation: HAMSTER, LIVER, S-9, AROCLOR 1254 (10%), Method: PREINCUBATION): inactive; negative
- mutagenic call [6]: inactive; negative
- mutagenic call [7]: inactive; negative
- mutagenic call (Test System: AMES SALMONELLA TYPHIMURIUM, Strain/Indicator: TA100, Metabolic Activation: RAT, LIVER, S-9, AROCLOR 1254, FLAVIN MONONUCLEOTIDE, Method: PREINCUBATION (PRIVAL METHOD)): inactive; negative
- mutagenic call (Test System: AMES SALMONELLA TYPHIMURIUM, Strain/Indicator: TA100, Metabolic Activation: RAT, LIVER, S-9, AROCLOR 1254, Method: PREINCUBATION): inactive; negative
- mutagenic call [8]: inactive; negative
- mutagenic call [9]: inactive; negative
- mutagenic call [10]: inactive; negative
- mutagenic call [11]: inactive; negative

Compound: O=C(O)/C=C(/CC(=O)O)C(=O)O
- mutagenic call (Test System: AMES SALMONELLA TYPHIMURIUM, Strain/Indicator: TA98, Metabolic Activation: NONE, Method: STANDARD PLATE): inactive; negative
- mutagenic call (Test System: AMES SALMONELLA TYPHIMURIUM, Strain/Indicator: TA98, Metabolic Activation: RAT, LIVER, S-9, AROCLOR 1254, Method: STANDARD PLATE): inactive; negative
- mutagenic call [12]: inactive; negative
- mutagenic call (Test System: AMES SALMONELLA TYPHIMURIUM, Strain/Indicator: TA100, Metabolic Activation: RAT, LIVER, S-9, AROCLOR 1254, Method: STANDARD PLATE): inactive; negative
- mutagenic call (Test System: AMES SALMONELLA TYPHIMURIUM, Strain/Indicator: TA1535, Metabolic Activation: NONE, Method: STANDARD PLATE): inactive; negative
- mutagenic call (Test System: AMES SALMONELLA TYPHIMURIUM, Strain/Indicator: TA1535, Metabolic Activation: RAT, LIVER, S-9, AROCLOR 1254, Method: STANDARD PLATE): inactive; negative
- mutagenic call (Test System: AMES SALMONELLA TYPHIMURIUM, Strain/Indicator: TA1537, Metabolic Activation: NONE, Method: STANDARD PLATE): inactive; negative
- mutagenic call (Test System: AMES SALMONELLA TYPHIMURIUM, Strain/Indicator: TA1537, Metabolic Activation: RAT, LIVER, S-9, AROCLOR 1254, Method: STANDARD PLATE): inactive; negative

Compound: O=CN(O)c1ccc2ccccc2c1
- mutagenic call [4]: active; positive
- mutagenic call (Test System: AMES SALMONELLA TYPHIMURIUM, Strain/Indicator: TA98, Metabolic Activation: RAT, LIVER, CYTOSOL, Method: PREINCUBATION): active; positive
- mutagenic call (Test System: AMES SALMONELLA TYPHIMURIUM, Strain/Indicator: TA98, Metabolic Activation: RAT, LIVER, MICROSOMES, Method: PREINCUBATION): active; positive

Compound: CCCCOCN(C(=O)CCl)c1c(CC)cccc1CC
- mutagenic call [12]: inactive; negative
- mutagenic call (Test System: AMES SALMONELLA TYPHIMURIUM, Strain/Indicator: TA100, Metabolic Activation: S-9 MIX, Method: STANDARD PLATE): active; positive
- mutagenic call (Test System: Ames Salmonella typhimurium, Strain/Indicator: TA97, Metabolic Activation: None, Method: Suspension): inactive; negative
- mutagenic call (Test System: Ames Salmonella typhimurium, Strain/Indicator: TA97, Metabolic Activation: Rat, Liver, S-9, Aroclor 1254 (10% v/v), Method: Preincubation): inactive; negative
- mutagenic call (Test System: Ames Salmonella typhimurium, Strain/Indicator: TA98, Metabolic Activation: None, Method: Preincubation): inactive; negative
- mutagenic call (Test System: Ames Salmonella typhimurium, Strain/Indicator: TA98, Metabolic Activation: Rat, Liver, S-9, Aroclor 1254 (10% v/v), Method: Suspension): inactive; negative
- mutagenic call (Test System: Ames Salmonella typhimurium, Strain/Indicator: TA100, Metabolic Activation: None, Method: Suspension): inactive; negative
- mutagenic call (Test System: Ames Salmonella typhimurium, Strain/Indicator: TA100, Metabolic Activation: Rat, Liver, S-9, Aroclor 1254 (10% v/v), Method: Suspension): inactive; negative

Compound: CC(/C=C(/C#N)c1ccc(Cl)c(Cl)c1)C(c1ccccc1)C(C#N)c1ccc(Cl)c(Cl)c1 (stereo not drawn)
- mutagenic call [12]: active; positive
